The record followed here is ChEMBL document CHEMBL3124795, “Synthesis and antiproliferative evaluation of 13-aryl-13H-benzo[g]benzothiazolo [2,3-b]quinazoline-5,14-diones” (Bioorg Med Chem Lett, 2014).

One assay has as its system HepG2. As to the kind of experiment: Antiproliferative activity against human HepG2 cells after 48 hrs by MTT assay. Format: functional, cell-based. Particulars: HepG2, 48 h. (In general: Tetrazolium dyes change colour on reduction, which living cells bring about.)
The next assay relates to HeLa. As to the kind of experiment: Antiproliferative activity against human HeLa cells after 48 hrs by MTT assay. Format: functional, cell-based.
A further assay concerns HEK293. As to the kind of experiment: Antiproliferative activity against human HEK293 cells after 48 hrs by MTT assay. Type of assay: cell-based. Particulars: HEK293, 48 h.

The IC50 is the concentration that gives 50% inhibition. Higher therefore signals weaker potency. In the case of `O=C1C2=C(C(=O)c3ccccc31)C(c1ccc(Cl)cc1Cl)N1C(=N2)Sc2ccccc21` (configuration not stated), the half-maximal inhibitory concentration (IC50) was 3.56 µM in the assay with HepG2, 2.68 µM with HeLa and 4.9 µM with HEK293.

As for `O=C1C2=C(C(=O)c3ccccc31)C(c1ccc([N+](=O)[O-])cc1)N1C(=N2)Sc2ccccc21` (configuration not stated), the figures for the half-inhibitory concentration (IC50) with HepG2, with HeLa and in the assay with HEK293 were 14.3 µM, 29 µM and 50.3 µM, respectively.

Turning to `COc1cccc2c1C(=O)c1c(O)c3c(c(O)c1C2=O)C[C@@](O)(C(=O)CO)C[C@@H]3O[C@H]1C[C@H](N)[C@H](O)[C@H](C)O1` [DOXORUBICIN], the figures for the IC50 in the assay with HepG2 and with HEK293 were 1.15 µM and 1.06 µM, respectively.

For the compound `COc1cc(C2C3=C(N=C4Sc5ccccc5N42)C(=O)c2ccccc2C3=O)cc(OC)c1OC` (configuration not stated), the IC50 in the assay on HepG2 was 5.03 µM; in the assay on HeLa, 9.32 µM; with HEK293, 11 µM.

As for `Cc1ccc(C2C3=C(N=C4Sc5ccccc5N42)C(=O)c2ccccc2C3=O)cc1` (configuration not stated), the results for the IC50 in the assay with HepG2, in the assay on HeLa and in the assay on HEK293 were 1.7 µM, 3.81 µM and 5.18 µM, respectively.

In the case of `O=C1C2=C(C(=O)c3ccccc31)C(c1ccc(Cl)cc1)N1C(=N2)Sc2ccccc21` (configuration not stated), the concentration for half-maximal inhibition (IC50) with HepG2 came to 23.4 µM; in the assay with HeLa it was 15.6 µM; in the assay on HEK293 it was 25.9 µM.

Regarding `O=C1C2=C(C(=O)c3ccccc31)C(c1ccccc1)N1C(=N2)Sc2ccccc21` (configuration not stated), the concentration for half-maximal inhibition (IC50) in the assay on HepG2 was determined as 1.66 µM; in the assay with HeLa, 2.99 µM; in the assay on HEK293 it was 4.16 µM.

Regarding `O=C1C2=C(C(=O)c3ccccc31)C(c1cccs1)N1C(=N2)Sc2ccccc21` (configuration not stated), the IC50 in the assay with HepG2 was 5.76 µM; in the assay on HeLa it was 4.23 µM; in the assay with HEK293, 5.9 µM.

On to `O=C1C2=C(C(=O)c3ccccc31)C(c1ccco1)N1C(=N2)Sc2ccccc21` (configuration not stated), for which the half-maximal inhibitory concentration (IC50) was determined as 9.07 µM in the assay with HepG2, 6.62 µM in the assay on HeLa and 10.1 µM in the assay on HEK293.

In the case of `COc1ccc(OC)c(C2C3=C(N=C4Sc5ccccc5N42)C(=O)c2ccccc2C3=O)c1` (configuration not stated), the half-maximal inhibitory concentration (IC50) was 190 µM in the assay on HepG2, 125 µM with HeLa and more than 200 µM with HEK293.

With `O=C1C2=C(C(=O)c3ccccc31)C(c1ccc(F)cc1)N1C(=N2)Sc2ccccc21` (configuration not stated), the figures for the IC50 with HepG2, in the assay on HeLa and in the assay with HEK293 were 9.4 µM, 3.96 µM and 15.1 µM, respectively.
